Assay results taken from paper PMC11555231 (Nature Communications, 2024).
Bridge positions count the residues as written; N and C are the ends. Peptide text beside a SMILES is read from it.

Assays:
[1] = system: calcium influx into cells; test: Calcium imaging with Calbryte 520 AM; type: cell-based; conditions: Calbryte intensity, 25 µM peptide, 60 min
Protocol: Calbryte™ 520 AM dye (https://www.aatbio.com/products/calbryte-520-am) was used for quantification of calcium influx into cells. Cells were seeded onto 10 mm optical imaging plates at 10^5 cells per dish and allowed to attach overnight. Cells were stained with 10 μM Calbryte dye in normal growth medium for 1 h, 37 °C, 5% CO2, washed once with cell culture medium and imaged using a Nikon Wide-field microscope. A time series was performed, with a 488 laser image taken every second. After 1 min of imaging (baseline readings), PADI4_11 (25 μM), PADI4_11i (25 μM) or calcium ionophore (10 μM, as positive control) were added, and cells were imaged for a further 60 min. Analysis was done using imageJ —region of interest (ROI) were taken for each cell at each time point using ROI manager. Background values (ROI with no cells) were taken at each time point and removed from the same background reading (i.e. ROI at 1 second with cells minus ROI at 1 s background value). An average of at least ten cells was taken for each condition and each average data point was divided by the initial average data point for that cell, to obtain overall response.

[2] = system: hPADI4-stable mES cells; test: High content microscopy of citrullinated histone H3 (H3Cit) in hPADI4-stable mES cells; type: cell-based, mouse; conditions: mean H3Cit intensity, peptide 1 h, without any other activating stimulus
Protocol: HaLo-GFP-mito HeLa cells were grown in DMEM (Gibco) supplemented with 10% foetal bovine serum (FBS), penicillin/streptomycin (100 µg/ml) and puromycin (1 µg/ml) at 37 °C, 5% CO2. HaLo-GFP-mito HeLa cell line[82] was profiled by short tandem repeat analysis (STR) and tested negative for mycoplasma by the Cell Services Technology Platform at the Francis Crick Institute. E14 –mouse embryonic stem cells (Cambridge Stem Cell Institute, UK) were cultured in plates coated with 1% gelatine in GMEM supplemented with 10% foetal calf serum (FCS) batch-tested for ES cell culture (Gibco), 0.1 mM non-essential amino acids, 2 mM L-glutamine, 1 mM sodium pyruvate, 0.1 mM β-mercaptoethanol and 50 ng/mL leukaemia inhibitory factor (LIF) (ESGRO, Millipore). For PADI4 activation, cells were cultured in GMEM containing 10% knockout serum replacement (KSR, Life Technologies), 1% FCS batch-tested for ES cell culture (Gibco), 0.1 mM non-essential amino acids, L-glutamine, 1 mM sodium pyruvate, 0.1 mM β-mercaptoethanol, 50 ng/mL LIF (ESGRO, Millipore), 1 μM PD0325901 (AxonMedChem) and 3 μM CHIR99021 (AxonMedChem). For the generation of E14 mES stably expressing human PADI4 (hPADI4-stable), human PADI4 cDNA was inserted into ES E14 cells using the piggyBac transposon system. The Gateway system was used to clone human PADI4 into the piggyBac vector using primers PADI4_AttB1_F and PADI4_AttB2_R (Table S4). pPB-CAG-CTRL (empty vector) or pPB-CAG-hPADI4 vectors […] were transfected with the piggyBac transposase (pPBase) expression vector, pCAGPBase […], by lipofection according to the manufacturer’s instructions (Lipofectamine 2000, Invitrogen). E14 cells constitutively expressing the hygromycin resistance gene and human PADI4 were selected and expanded in media containing […] hygromycin.
E14 cells were seeded onto 96-well PerkinElmer cell carrier ultra plates (Phenoplates) coated with 0.1% gelatine, at 25,000 cells per well and grown overnight at 37 °C, 5% CO2. Outer wells were excluded but medium was added to minimise any edge effects. […]

[3] = system: HaLo-GFP-mito HeLa cells; test: Chloroalkane penetration assay (CAPA); type: in vitro ADME; conditions: CAPA, chloroalkane-tagged peptide, 4 h in Opti-MEM, 37 °C, chase HaLo-Tag TMR ligand 5 µM 15 min, flow cytometry; mean ± SEM of three independent experiments
Protocol: Following the addition of chloroacetyl-NHS to the N-terminal amino group, Cys(mmt) was selectively deprotected using 1% TFA, 5% triisopropylsilane in DCM (30 min, RT). Peptides were then cyclised on resin using 2% diisopropylethylamine in DMF overnight. Following cyclisation, Lys(ivDde) was deprotected using 2% hydrazine in DMF. The resin was then washed (3 x DCM, 3 x DMF) before on-resin coupling of chloroalkane carboxylic acid was performed on the lysine side chain using Hexafluorophosphate Azabenzotriazole Tetramethyl Uronium / diisopropylethylamine in DMF for 2 h. Global deprotection and purification were then carried out as described above. Chloroalkane carboxylate was synthesised as previously described.
CAPA assays were performed following the protocol published in ref. [51]. In brief, 40,000 HaLo- GFP-mito HeLa cells were seeded in a 96-well plate. Twenty-four hours later, cells were treated with different concentrations of chloroalkane-tagged peptides (100 µM to 200 nM for PADI4_3 and PADI4_3i and 50 µM to 100 nM for PADI4_11 and PADI4_11i) for 4 h in Opti-MEM. Media containing peptides was then removed, and cells were incubated with Opti-MEM (Gibco) for 15 min. After that time, the wash was removed, and cells were chased with HaLo-Tag TMR ligand (5 µM, Promega) in Opti-MEM for 15 min. The ligand was then removed, and cells were incubated with Opti-MEM for 30 min. Cells were then trypsinised, resuspended in phosphate-buffered saline (PBS) with 0.5% FBS and analysed using a benchtop flow cytometer (MACSQuant® VYB Flow cytometer Milteny Biotec). For each well, 10000 GFP positive single cells were analysed (gating workflow shown in Supplementary Fig. 18), and TMR mean fluorescence was normalised against a positive control (cells treated with HaLo-Tag TMR ligand but no peptide) and a negative control (non-treated cells). Analysis was performed using FlowJo (LCC) software and Prism GraphPad (Dotmatics). Data were presented as the average ± standard error of three independent replicates.

CC(C)C[C@H](NC(=O)[C@H](CCC(N)=O)NC(=O)[C@H](CC(C)C)NC(=O)[C@@H](NC(=O)[C@H](CCC(N)=O)NC(=O)[C@H](CCCNC(=N)N)NC(=O)[C@H](Cc1ccc(O)cc1)NC(=O)[C@H](CCCNC(=N)N)NC(=O)[C@@H]1CSCC(=O)N[C@@H](Cc2ccc(O)cc2)C(=O)N[C@@H](CO)C(=O)N[C@@H](CCC(=O)O)C(=O)N1)C(C)C)C(N)=O [PADI4_11i] ({CH2CO}-YSECRYRQVLQL-NH2; thioether N-4)
intracellular calcium levels (calcium influx) [1]: neither PADI4_11, nor PADI4_11i, were responsible for increased intracellular calcium levels
PADI4 activation in cells (in words) [2]: does not have the same effect
CP50 [3]: 2.0 ± 0.5 µM
